US7579338B2, “Methods and compositions for treating atheroma, tumors and other neoplastic tissues” (Pharmacyclics, Inc., priority 1999, dated 2009)

Tests used:
[1] = test system: MES-SA human uterine cells; test: Proliferation of MES-SA cells with ascorbate and texaphyrin (MTT); format: cell-based; conditions: ascorbate at or below 333 μM, absence of texaphyrin
Procedure: The proliferation of MES-SA human uterine cells (Harker, W. G.; MacKintosh, F. R.; Sikic, B. I. Cancer Res. 1983, 43, 4943-4950) grown in RPMI-1640 medium in the presence of ascorbate or complex was used to assess the formation of hydrogen peroxide under cell culture conditions.
(§1) 5A. Materials and Methods. MES-SA cells were allowed to adhere to (4) 96-well microtiter plates (4000 cells per well) overnight in 160 μL RPMI medium. Stock ascorbate 3.0 mM in medium (80 μL) was serially diluted (1:3) in rows B through F (discarding the final 80 μL). Row G was used for no-ascorbate control. Stock solutions of GdTex (2 mM in 5% mannitol) diluted in medium and 5% mannitol were prepared and added to the plates to give a final volume of 200 μL in all wells. Columns 2 and 3 contained 100 μM GdTex; columns 4 and 5 contained 75 μM GdTex, columns 6 and 7 contained 50 μM GdTex; columns 8 and 9 contained 25 μM GdTex; and columns 10 and 11 contained no GdTex (all concentrations final). Final mannitol concentration was 0.25% in all wells. The plates were incubated at 37 C under a 5% CO2/95% air atmosphere. Complex-containing medium was exchanged for fresh medium after 5 hours, and plates were incubated an additional 72 hours prior to analysis for viability using the tetrazolium dye, MTT (Mosmann, T. J. Immunol. Methods 1983, 65, 55-63). In brief, 20 μL MTT dye (Sigma Chemical, St. Louis, Mo., catalogue no. M 2128, 5 mg/mL solution in phosphate buffered saline) was added to cells in media to give a final volume of 200 μL. The plates were incubated at 37° C. for ca. 2 hours, whereupon the media was removed and isopropyl alcohol (100 μL/well) was added. Plates were vortexed for ca. 3 minutes to dissolve MTT formazan, then read on a microplate reader at 560-650 nm. Plate absorbances were normalized to wells containing neither ascorbate nor GdTex to allow plate to plate comparison. Data for each concentration of GdTex and ascorbate is the average of eight wells.
The proliferation of MES-SA human uterine cells grown in RPMI-1640 medium in the presence of ascorbate and LuTex was used to assess the production of hydrogen peroxide under cell culture conditions following the protocol outlined in the previous example.

MES-SA cells [2] = test: Response of MES-SA cells to ionizing radiation, microtiter plate format (MTT); format: cell-based, human; conditions: BSO 0 to 100 μM and higher, data not shown
Procedure: The response of MES-SA cells to ionizing radiation was studied using the microtiter plate format to confirm radiation sensitization potential. This assay is used to assess rapidly the effects of irradiation under a variety of conditions.
10A. Materials and Methods. MES-SA cells were incubated at 37° C. and allowed to adhere to 96-well microtiter plates (1000 cells per well) overnight in 160 μL McCoys 5A containing 10% FBS (Gibco-BRL) and ca. 2% penicillin/streptomycin solution (Sigma). BSO or media (20 μL) was added, respectively to test and control wells, 24 h prior to irradiation. Metallotexaphyrin complex (up to 100 μM) was added to the test wells to give a final volume of 200 μL, 18-24 h prior to irradiation. Plates were irradiated using a 137Cs irradiator (Model 40 Gammacell, J. L. Shepherd & Assoc., San Fernando, Calif.) at a dose rate of 33.25 Rad/min. A lead brick (2″ diameter) was positioned to protect a column of wells (no. 11) from ionizing radiation. Plate absorbances were normalized to shielded wells to allow plate-to-plate comparison. […] Reversing the position of texaphyrin complex-containing wells had no effect on assay outcome. Medium was exchanged immediately after irradiation, and plates were incubated an additional 120 h prior to analysis for viability using the MTT assay (as described, e.g., in Example 5).

[3] = test system: MES-SA human uterine cells; test: Proliferation of MES-SA cells with BSO and GdTex (MTT); format: cell-based; conditions: Homo sapiens, MES-SA; absence of GdTex, highest (50 μM) concentration tested, ca. 72 hours; read-out: inhibitory effect of BSO alone
Procedure: The proliferation of MES-SA human uterine cells grown in McCoys 5A medium in the presence of a thiol depleting agent (BSO) or GdTex was used to assess the combined effect of these agents. The protocol outlined in the previous example was followed, with the following changes:
1. The serially diluted compound was 200 μM BSO (Sigma Chemical, St. Louis, Mo., catalogue no. G1404).
2. The cells were allowed to incubate in the presence of the two drugs for ca. 72 hours, prior to exchange of media and analysis using the colorimetric (MTT) assay, as described, e.g., in Example 5.

MES-SA cells [4] = test: Radiation sensitization by clonogenic assay; format: cell-based, human; conditions: 50 μM GdTex or 100 μM BSO for 24 h prior to irradiation, ascorbate-containing medium
Procedure: The response of MES-SA cells to ionizing radiation was studied using a clonogenic assay format to confirm radiation sensitization potential.
Materials and Methods. MES-SA cells (200 to 5,000 cells per dish) were plated in T-25 flasks in 8.5 mL McCoys 5A containing 10% FBS (Gibco-BRL) and ca. 2% penicillin/streptomycin solution (Sigma) and incubated at 37° C. overnight. Stock BSO, ascorbate, GdTex (or a control 5% mannitol) solutions were prepared and 0.5 mL of each added to each flask to give a final volume of 10 mL (final concentrations of BSO, ascorbate and GdTex were 100 μM, 5 μM and 50 μM, respectively) and the cells incubated for 24 hr, whereupon the flasks were irradiated using a 137Cs irradiator (Model 40 Gammacell, J. L. Shepherd & Assoc., San Fernando, Calif.) at a dose rate of 0.805 Gy/min. Medium was removed immediately after irradiation, the cells were washed with fresh medium (5.0 mL) followed by the addition of fresh medium (10 mL) and incubation for an additional 11 days. Colonies were fixed and stained with 1% crystal violet and then counted.

[5] = test system: EMT-6 mouse mammary sarcoma cells; test: Proliferation of EMT-6 cells with NADPH and texaphyrin (MTT); format: cell-based; conditions: NADPH at or below 1000 μM, absence of texaphyrin
Procedure: as §1
(§2) The proliferation of EMT-6 mouse mammary sarcoma (Rockwell, S. C., et al., J. Natl. Cancer Inst. 1972, 49, 735-749) cells grown in RPMI-1640 medium in the presence of NADPH and motexafin lutetium was used to assess the production of hydrogen peroxide under cell culture conditions following the protocol outlined in the previous example.
as §2, with “GdTex” for “motexafin lutetium”

O=C1O[C@H]([C@@H](O)CO)C(O)=C1O [Ascorbate, ascorbic acid, reference compound]
inhibitory effect on cell proliferation, ascorbate alone [1]: no inhibitory effect

CCCCS(=N)(=O)CC[C@H](N)C(=O)O (stereo partly drawn) [BSO, L-Buthionine-[S,R]-Sulfoximine, reference compound]
effect of BSO on GdTex radiation sensitization (MES-SA cells [2]): dose-dependent from 0 to 100 μM, and leveled off at higher BSO concentrations | inhibition at 50 µM [3]: ~10% | effect on clonogenic survival as a function of radiation, single agent (MES-SA cells [4]): relatively small effect on clonogenic survival

NC(=O)C1=CN([C@@H]2O[C@H](COP(=O)(O)OP(=O)(O)OC[C@H]3O[C@@H](n4cnc5c(N)ncnc54)[C@H](OP(=O)(O)O)[C@@H]3O)[C@@H](O)[C@H]2O)C=CC1 [NADPH, reference compound]
inhibitory effect on cell proliferation, NADPH alone [5]: no inhibitory effect
